For test [1], the target named is T1, HLA-A∗02:01 on T2 cells (Homo sapiens, UniProt P04439, D140Y/D185E/D98H/E176V/E277Q/G131W/G231S/I119V/I121R/I166T/I218V/L300P/L318F/N151K/N90K/P208A/P217A/Q86G/Q94H/R138H/R169H/T345S).
T1 construct: measuring peptide-induced expression of HLA-A∗02:01 on T2 cells using flow cytometry; host or cells: T2 cells (human, TAP1/TAP2-deficient)
Nature of the test: T2-cell-peptide binding test (peptide-induced HLA-A∗02:01 expression, flow cytometry). The conditions noted are these: peptide 20 μg/mL; for percentage of MFI increase of HLA-A∗02:01: 4 h in SFM, BB7.2 anti-HLA-A∗02:01 mAb, mean ± SE of three independent experiments, SEM; for affinity for binding to HLA-A∗02 (in words): 4 h, Figure 2(b). As to the method:
The binding activity of selected peptides to the HLA-A∗02 molecule was determined semiquantitatively by measuring peptide-induced expression of HLA-A∗02:01 on T2 cells using flow cytometry. The T2 cells were incubated for 4 h with the candidate peptides, respectively, at a concentration of 20 μg/mL in SFM. After being washed with phosphate buffered saline-fetal calf serum (PBS-FCS), the T2 cells were incubated with supernatant containing murine mAb against HLA-A∗02:01 derived from BB7.2 cells for 30 min at 4°C. The T2 cells were washed twice with PBS-FCS and stained with 5 μg/mL diluted fluorescein isothiocyanate-conjugated immunoglobulin G which reacts to mouse immunoglobulin for 30 min. The cells were then rinsed three times with PBS-FCS and analyzed using a FACSAria flow cytometer. The percent mean fluorescence index (% MFI) increase of HLA-A∗02:01 molecules was calculated as follows: % MFI increase = [(MFI with peptide − MFI without peptide)]/(MFI without peptide) × 100 [27].
Background: In flow cytometry, cells or beads pass a laser one at a time.

Test [2] concerns PBMCs from healthy donors and patients with glioma. Put plainly: IFN-γ ELISpot assay with PBMCs. It is filed as cell-based, human. The settings on record: PBMCs from five HLA-A∗02+ patients with GBM and one control patient with benign tumor, Figure 4. As to the method: A human IFN-γ ELISpot kit (552138; BD Pharmingen, CA) was used to quantify the CTL response in PBMCs. Several 96-well plates were coated with purified anti-human IFN-γ monoclonal antibodies at the concentration of 5 μg/mL at 100 μL/well and incubated at 4°C overnight and then washed once with 200 μL/well of RPMI-1640 containing 10% FBS and 1% penicillin-streptomycin-L-glutamine (R10) and blocked with 200 μL/well R10 for 2 h at room temperature. PBMCs were then washed twice with R10 and resuspended in R10 complete culture medium. After being counted, the cells were then adjusted to the concentration of 1 × 10^6 cells/mL and plated onto a 96-well ELISpot plate at 50 μL/well (5 × 10^4 cells/well) with the addition of 50 μL of the peptide. The final concentration of each peptide was 5 μg/mL. The 96-well ELISpot plates were incubated for about 20 h at 37°C in 5% CO2. After incubation, the ELISpot plates were developed according to the kit instructions. Finally, the plates were air-dried and the resulting spots were counted with ChampSpot IV Bioreader (Beijing SAGE Creation Science, Beijing, China). Peptide-specific IFN-γ ELISpot responses were considered positive only when the number of spots was twofold greater than the control peptide stimulation and there were >50 spots per 1 × 10^6 PBMCs.

In the case of KLLRMLFDL [HEATR1_1126–1134], the “percentage of MFI increase of HLA-A∗02:01” value in test [1] is given as 287.2 ± 7.7%. For the same sequence, the “ELISpot response to individual peptide (in words)” value (shortened to “ELISpot response”) in test [2] was “higher than the others”. LLPESIPFL [HEATR1_2102–2110]: the “percentage of MFI increase of HLA-A∗02:01” value in test [1] worked out at 285.2 ± 49.2%. In the case of FLWILLILL [HEATR1_1411–1419], in test [1], the “affinity for binding to HLA-A∗02 (in words)” value (“affinity for binding” below) is recorded as “lowest affinity”. On to FLFDTQHFI [HEATR1_2003–2011], for which the “affinity for binding” value in test [1] is “lower affinity”. As for LMLDRGIPV [HEATR1_757–765], the “percentage of MFI increase of HLA-A∗02:01” value in test [1] came out at 228.7 ± 5.4%. In addition, in test [2], the “ELISpot response” value is recorded as “highest ELISpot response”. Turning to KMVEDLISV [HEATR1_682–690], in test [1], the “affinity for binding” value was “highest affinity” and the “percentage of MFI increase of HLA-A∗02:01” value is given as 308.5 ± 4.8%. In addition, the “ELISpot response” value in test [2] is reported as “higher than the others”.
